Key:
primary CD4+ T cells = experiment: Induction of CD69 expression in primary CD4+ T cells; type: cell-based, human; conditions: 24h
Protocol: Primary human cells from HIV seronegative individuals were cultured in “RF10 medium” consisting of RPMI 1640 medium supplemented with 10% fetal bovine serum (FBS, Omega Scientific), 100 U/mL of penicillin, and 100 μg/mL of streptomycin (Invitrogen). PBMCs were isolated using Ficoll-Paque Plus separation (GE Healthcare). Primary CD4+ T cells were separated from PBMCs by negative immunomagnetic selection using the CD4+ T cell Isolation Kit (Miltenyi Biotec) according to the manufacturer’s instructions. Cells were then exposed to compound for 24 hours before staining and flow cytometric analysis of CD69 levels. Compound incubations were performed by seeding 10^5 cells/well in 100 μL of RF10 media containing the appropriate concentration of compound in wells of a v-bottomed 96-well plate. Bryostatin 1 (Tocris bioscience) and Prostratin (LC Laboratories) were obtained commercially, and bryologs or prostratin analogs were synthesized as previously described.
For human PBMC CD69 induction experiments, cells were stained with CD69-ECD (Beckman Coulter 6607110). During staining, cells were incubated at 4 °C for 20 minutes, washed with 2% FBS in PBS, and then resuspended in 2% paraformaldehyde. Stained samples were stored at 4 °C.
Flow cytometry samples were analyzed using a Cytomics FC 500 (Beckman Coulter) or a LSR Fortessa (BD Biosciences) flow cytometer. Data were analyzed using FlowJo (v7) software.

murine splenocytes = experiment: In vivo bioactivity (CD69/CD25 in splenocytes) in C57/bl6 mice; conditions: intraperitoneal injection, 24h post-injection, maximum over ascending doses
Protocol: C57/bl6 mice were obtained from the UCLA Department of Radiation Oncology. Compounds were suspended in DMSO and then further diluted in RF10 media to produce a final volume of 500 μL (containing a maximum 4% DMSO). These 500 μL volumes were administered to mice by intraperitoneal injection. Mice were monitored for acute toxicities and then sacrificed at the indicated times. Spleens were removed and disaggregated using a steel mesh, and then filtered through a 40 μm filter to produce a single-cell suspension. The resultant splenocytes were then stained for flow cytometry to analyze surface expression of relevant markers.
During standard flow cytometry staining, samples of 10^5 cells were suspended in 50 μL of a 1:1 dilution of phosphate buffered saline (PBS):Human AB serum (Sigma). Staining of C57/bl6 mouse splenocytes was performed by adding the following anti-mouse fluorescent conjugated antibodies: CD3-Fluorescein isothiocyanate (FITC, eBioscience 11-0032-82); CD69-Phycoerythrin (PE, eBioscience 12-0691-83); and CD4-Allophycocyanin (APC, eBioscience 17-0041-83). In some experiments CD4-APC was replaced with CD25-APC (eBioscience 17-0251-82) and CD4-Phycoerythrin Cyanin 7 (PC7, eBioscience 25-0041-82). For humanized mouse studies, PBMC and splenocytes from BLT mice were stained with anti-mouse CD45-Alexa 700 (Biolegend 103128) and the following anti-human antibodies: CD45-e450 (eBioscience 48-0459-42); CD3-APC-780 (eBioscience; 47-0038-42); CD4-V500 (BD biosciences; 560768); CD8-Peridinin chlorophyll protein (PerCP)-710 (eBioscience 46-0087-42); CD25-PE (Beckman IM0479U); CD69-APC (Biolegend 310910); CD14-PE-Cy7 (Biolegend 325618). Cells were separately stained for anti-human CD45 e450- (eBioscience 48-0459-42) and anti-HA-Biotin PE (Roche 12158167001) followed by a secondary Streptavidin, R-Phycoerythrin Conjugate (Invitrogen s866) stain. This two-step stain was performed by incubating 1-2x10^6 cells at 4°C for 20–30 min, washing with 2% FBS in PBS, then adding the secondary stain, incubating again at 4°C for 20–30 min, and washing with 2% FBS in PBS before fixation with 2% paraformaldehyde. In some experiments, cell death was also evaluated by GHOST Red 780 (Tonbo Biosciences 13–0865) or Zombie Yellow (Biolegend 423104) stains. For this procedure, 10^6 cells were suspended in 100 μL PBS, and then the Zombie yellow and GHOST Red 780 dyes added. Cells were incubated for 20 min at room temperature in the dark and then washed twice with 2% FBS in PBS. Cells were then fixed with 2% paraformaldehyde and incubated for 20 min in the dark. In some experiments cells were then washed with 2% FBS in PBS, resuspended in 1:1 PBS:Human AB serum and then stained for human CD45 and HA, CD3-PE-Cy5 (Biolegend 300310), CD4-ECD (Beckman 6604727), CD8 Per-CO710 (eBioscience 46-0087-42) and CD3-APC (Cell signaling 9602S) as described above.

[1] = phase I, ART-treated patients; cited from earlier work

Compound	CD69 expression (primary CD4+ T cells)	CD4+ splenocytes expressing CD69 (murine splenocytes)	safety in patients [1]
CC(=O)O[C@@]12C[C@@H](C)[C@@]3(O)[C@@H](C=C(CO)C[C@]4(O)C(=O)C(C)=C[C@@H]34)[C@@H]1C2(C)C [Prostratin]	can each induce expression	–	–
CCC/C=C/C=C/C(=O)O[C@H]1/C(=C/C(=O)OC)C[C@H]2C[C@H]([C@@H](C)O)OC(=O)C[C@H](O)C[C@@H]3C[C@H](OC(C)=O)C(C)(C)[C@](O)(C[C@@H]4C/C(=C/C(=O)OC)C[C@H](/C=C/C(C)(C)[C@]1(O)O2)O4)O3 [bryostatin 1]	can each induce expression	approximately 60%	safe at low doses

From article PMC5608406, “In vivo activation of latent HIV with a synthetic bryostatin analog effects both latent cell "kick" and "kill" in strategy for virus eradication” (PLoS Pathogens, 2017)
